Measurements from patent US8933071B2, “Dimethyl fasudil for inducing polyploidization of megakaryocytes and for treating blood and bone marrow diseases and disorders” (Northwestern University, priority 2008, dated 2015).

Legend:
Assay type in all cases: cell-based
[1] = system: CD41+ megakaryocyte fraction; assay: Polyploidization of primary human megakaryocytes (CD34+ cells cultured with TPO), CD41+ fraction; conditions: CD34+ cells cultured with TPO 12 days, compound added after 9 days
Procedure: (§1) FIG. 4 illustrates that DMF induces polyploidization of normal human megakaryocytes and that its activity is restricted to the CD41+ population. Human CD34+ cells were cultured with TPO for 12 days and then fixed and stained with DAPI. DMSO or DMF were added to the culture after 9 days. DNA content was then assessed by flow cytometry. Numbers above the bar indicate % of cells ≧8N.
(§2) In collaboration with the Broad Institute, a high throughput screen for small molecules was conducted to identify small molecules that preferentially induce polyploidization or differentiation of megakaryocytes. We screened 10,000 compounds from the Broad's extensive collection of small molecules (including known bioactives, kinase and HDAC inhibitors, and natural products) to identify inducers of megakaryocyte polyploidization. The screen was performed in the following manner: 1) 4,000 CMK (human megakaryocytic leukemia) cells were plated into each well of a 384-well plate, 2) 100 n1 of compounds (yielding a final concentration of 10 μM) were pinned into the wells, 3) plates were incubated at 37° C. for 72 hours, 4) cells were fixed and stained with Hoescht, and 5) plates were imaged using an ImageXpressMICRO high content imager with 20× objective. Nine images per well were collected. 6) Data were analyzed using both MetaXpress software and “Cell Profiler,” software designed at MIT and the Broad Institute. […]

[2] = system: GIME cells; assay: Polyploidization of GIME cells (DNA content by flow cytometry); conditions: GIME cells, 48 hours, DAPI, flow cytometry
Procedure: (A) Y10, (B) GIME, and (C) CMK cells were grown in the presence of TPO, SU6656, or vehicle (DMSO) for 72 hours. DNA content was measured by flow cytometry. The percentages of cells that reach a DNA content of ≧8N are boxed in A and C, those equal to 8N are boxed in B. D) CMK cells were grown as in (C), and cell numbers were enumerated at 0, 24, 48 and 72 h.
DNA content was then assessed by flow cytometry. Numbers above the bar indicate % of cells ≧8N. b) After 48 hours, GIME cells from a) were stained with anti-CD42 antibodies and the cell surface expression of CD42 was evaluated by flow cytometry.
To study how megakaryocytes switch from a proliferative to endomitotic cell cycle, the Src kinase inhibitor SU6656 is being utilized.

[3] = system: CD41+ megakaryocytes obtained from human MPD bone marrow; conditions: ET patient bone marrow, TPO, 5 days
Procedure: Two lead compounds were tested on samples from both MPD (myeloproliferative disease) patients and AMKL (acute megakaryocytic leukemia) patients. […] Referring to FIG. 8, bone marrow samples from patients with AMKL were cultured in DMSO (control) or DMF (at 5 μM) for 14 days. Colonies were stained with anti-CD41 antibody and visualized by microcopy (not shown). Total numbers of CD41+ megakaryocyte colonies are shown.
Mononuclear cells from bone marrow of patients were obtained by informed consent from patients at Northwestern Feinberg School of Medicine. Mononuclear cells were separated from marrow with Ficoll (GE Healthcare life sciences, Piscataway, N.J.) and resuspended in IMDM (Iscove's Modified Dulbecco's Media) media without serum. The cells were stained with 0.4% trypan blue solution for 5 minutes and live cells were counted. Live cells were assayed in CFU-MK (“Colony forming units-megakaryocytes”) and BFU-E (“Burst forming unit-erythroid”) assays as well as in liquid culture.
Marrow cells from ET patients were also cultured in RPMI with 10% FBS in the presence of recombinant human TPO (thrombopoeitin, 50 ng/ml). […] DNA content of both CD41+ cells and CD41-negative cells was analyzed by utilizing a BD LSRII flow cytometer (BD Biosciences San Jose, Calif.).

[4] = system: non-megakaryocytic cells (CD41-negative); assay: Effect on non-megakaryocytic (CD41-negative) cells in human CD34+ culture; conditions: CD41-negative population
Procedure: as §1, §2

[5] = system: CMK (human megakaryocytic leukemia) cells; assay: High throughput screen for inducers of megakaryocyte polyploidization; conditions: 10 μM, 72 hours, Hoescht stain, high content imaging
Procedure: In collaboration with the Broad Institute, a high throughput screen for small molecules was conducted to identify small molecules that preferentially induce polyploidization or differentiation of megakaryocytes. We screened 10,000 compounds from the Broad's extensive collection of small molecules (including known bioactives, kinase and HDAC inhibitors, and natural products) to identify inducers of megakaryocyte polyploidization. The screen was performed in the following manner: 1) 4,000 CMK (human megakaryocytic leukemia) cells were plated into each well of a 384-well plate, 2) 100 n1 of compounds (yielding a final concentration of 10 μM) were pinned into the wells, 3) plates were incubated at 37° C. for 72 hours, 4) cells were fixed and stained with Hoescht, and 5) plates were imaged using an ImageXpressMICRO high content imager with 20× objective. Nine images per well were collected. 6) Data were analyzed using both MetaXpress software and “Cell Profiler,” software designed at MIT and the Broad Institute. Seventy-two plates containing duplicates of nearly 10,000 small molecules were screened.

Substance: dimethylfasudil [DMF]
- polyploidization of primary human megakaryocytes [1]: potently induced polyploidization
- induction of polyploidization [2]: potent inducers
- induction of polyploidization ([2]; listed as Rho-kinase inhibitor): potent inducer of polyploidization
- polyploidization of bone marrow megakaryocytes [3]: potently induced polyploidization
- effect on non-megakaryocytic (CD41-negative) cells [4]: no effect
- positive in polyploidization screen [5]: positives
